In ChEMBL document CHEMBL1201862, “PubChem BioAssay data set” (2004):
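The compound was tested at five concentrations on cells cultured in 96-well plates, with a 48-hour exposure period. Here, GI50 denotes the concentration required for 50% inhibition of growth.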 Calls of active or inactive are those of the source. No stated cut-off is given here; in the data, active = GI50 up to about 1.1 µM and inactive = higher.

Key:
Test in all cases: NCI-60 cell line screen, 48 h
[1] = test system: A498
[2] = test system: ACHN
[3] = test system: HCT-116
[4] = test system: IGROV-1
[5] = test system: KM-20L2
[6] = test system: M19-MEL
[7] = test system: MOLT-4
[8] = test system: NCI-H522
[9] = test system: OVCAR-3
[10] = test system: OVCAR-4
[11] = test system: RXF 393
[12] = test system: SNB-19
[13] = test system: SW-620
[14] = test system: TK-10
[15] = test system: UACC-257
[16] = test system: UACC-62
[17] = test system: DU-145
[18] = test system: Hs-578T
[19] = test system: MCF7
[20] = test system: T47D

Measured: GI50

N=C1c2ccccc2C(=O)c2c(NCCNCCO)ccc(O)c21
inactive: [1] 13.7 µM | [2] 3.23 µM | [3] 3.27 µM | [4] 5.38 µM | [5] 5 µM | [6] 5.55 µM | [7] 1.88 µM | [8] 3.4 µM | [9] 12.9 µM | [10] 23.4 µM | [11] 4.66 µM | [12] 8.24 µM | [13] 3.1 µM | [14] 11.9 µM | [15] 13.9 µM | [16] 6.4 µM

[N-]=[N+]=Nc1ccc(S(=O)(=O)Oc2cc(OS(=O)(=O)c3ccc(N=[N+]=[N-])cc3)cc(OS(=O)(=O)c3ccc(N=[N+]=[N-])cc3)c2)cc1
inactive: [1] > 100 µM | [2] > 10 µM | [3] > 100 µM | [4] > 100 µM | [5] > 100 µM | [6] > 100 µM | [7] > 100 µM | [8] > 100 µM | [9] > 100 µM | [10] > 10 µM | [11] > 100 µM | [12] > 10 µM | [13] > 10 µM | [14] > 100 µM | [15] > 100 µM | [16] > 100 µM

COc1c(O)c2ccccc2c2cc(O)ccc12
inactive: [1] 8.45 µM | [2] 3.55 µM | [17] 8.22 µM | [3] 4.53 µM | [18] 17.4 µM | [4] 9.57 µM | [5] 22.5 µM | [6] 2.01 µM | [19] 2.39 µM | [7] 8.61 µM | [8] 5.4 µM | [9] 8.81 µM | [10] 6.56 µM | [11] 9.93 µM | [12] 13.6 µM | [13] 3.18 µM | [20] 13.5 µM | [14] 25.4 µM | [15] 2.1 µM | [16] 2.67 µM

CCN(CC)CCCN(c1cc(OC)cc2nccnc12)S(=O)(=O)c1ccc(C)cc1
inactive: [1] > 100 µM | [2] > 100 µM | [4] > 100 µM | [5] > 100 µM | [6] > 100 µM | [7] 74.6 µM | [8] > 100 µM | [9] > 100 µM | [10] > 100 µM | [11] 41.1 µM | [12] > 100 µM | [13] > 100 µM | [14] > 100 µM | [15] > 100 µM | [16] > 100 µM

COc1cccc(/C(Cl)=C(\C=O)c2cccc(OC)c2)c1
inactive: [1] 19.3 µM | [2] 6.9 µM | [3] 3.28 µM | [4] 21 µM | [5] 20.9 µM | [6] 12.7 µM | [7] 7.74 µM | [8] 2.68 µM | [9] 15.4 µM | [10] 13.8 µM | [11] 5.12 µM | [12] 11.3 µM | [13] 6.81 µM | [14] 20.4 µM | [15] 15.3 µM | [16] 4.43 µM

CC(C)(C)c1cc2c3c(c1)c(=O)c1cccc4c(O)c5cccc(c2=O)c5c-3c41
inactive: [1] 99.1 µM | [2] > 100 µM | [3] 59.7 µM | [4] > 100 µM | [5] 33.2 µM | [6] > 100 µM | [7] 38.1 µM | [8] > 100 µM | [9] 40.4 µM | [10] > 100 µM | [11] 34 µM | [12] > 100 µM | [13] > 100 µM | [14] > 100 µM | [15] > 100 µM | [16] > 100 µM

O=c1/c(=C/c2ccccc2[N+](=O)[O-])sc2nnc(-c3ccco3)n12
inactive: [1] > 100 µM | [2] 52.5 µM | [3] 26.9 µM | [4] 25.1 µM | [5] 91 µM | [6] 19.5 µM | [7] 31.6 µM | [8] 18.2 µM | [9] 17.7 µM | [10] 22.4 µM | [11] 16.8 µM | [12] 22.4 µM | [13] 20.4 µM | [14] > 100 µM | [15] 33.9 µM | [16] 25.8 µM

COc1nc(C(=O)O)c(Cl)c(OC)c1Cl
inactive: [1] > 100 µM | [2] > 100 µM | [3] > 100 µM | [4] > 100 µM | [5] > 100 µM | [6] > 100 µM | [7] > 100 µM | [8] > 100 µM | [9] > 100 µM | [10] > 100 µM | [11] > 100 µM | [12] > 100 µM | [13] > 100 µM | [14] > 100 µM | [15] > 100 µM | [16] > 100 µM

NNC(=O)C(=O)NN=C(C(Cl)(Cl)CO)C(Cl)(Cl)CO
inactive: [1] > 100 µM | [2] 31.3 µM | [3] 20.6 µM | [4] > 100 µM | [5] 44.5 µM | [6] 20.1 µM | [7] 21.2 µM | [8] 12.1 µM | [9] 25.6 µM | [10] > 100 µM | [11] 21.9 µM | [12] 48.1 µM | [13] 18.4 µM | [14] 60.3 µM | [15] 30.6 µM | [16] 65.5 µM

CC(=O)OCC1OC(n2ccc(=O)[nH]c2=O)C(OC(C)=O)C(OC(C)=O)C1OC(C)=O (stereo not given)
inactive: [1] > 100 µM | [2] > 100 µM | [3] > 100 µM | [4] > 100 µM | [5] > 100 µM | [6] > 100 µM | [7] > 10 µM | [8] > 100 µM | [9] > 100 µM | [10] > 100 µM | [11] > 100 µM | [12] > 100 µM | [13] > 100 µM | [14] > 100 µM | [15] > 100 µM | [16] > 100 µM

COC(=O)[C@@]12C3=NO[C@]1(C(=O)OC)C(O[Si](C)(C)C(C)(C)C)[C@@H](OC(C)=O)[C@@H](OC(C)=O)[C@@H]2[C@@H](OCc1ccccc1)CC3 (stereo not given in full)
inactive: [1] > 85.3 µM | [2] 4.44 µM | [3] 5.07 µM | [4] > 29 µM | [5] > 100 µM | [6] > 100 µM | [7] 5.14 µM | [8] 3.86 µM | [9] 13.5 µM | [10] 4.82 µM | [11] 3.06 µM | [12] 8.81 µM | [13] > 100 µM | [14] > 100 µM | [15] 17.4 µM | [16] > 43.6 µM

COc1cc(/C=C/c2ccc(Br)cc2)cc(OC)c1OC
inactive: [1] 6.71 µM | [2] 18.9 µM | [3] 4.55 µM | [4] 23.6 µM | [5] 7.13 µM | [6] 13.9 µM | [7] 3.21 µM | [8] 11.8 µM | [9] 7.8 µM | [10] 21.3 µM | [11] 15.7 µM | [12] 21.1 µM | [13] 7.62 µM | [14] 21.6 µM | [15] 13.5 µM | [16] 8.02 µM
